Data: patent publication US20140296281A1, “METHODS FOR SCREENING A BRCA1 LOSS-OF-FUNCTION IN A SUBJECT SUFFERING FROM A CANCER” (INSERM (INSTITUT NATIONAL DE LA SANTE ET DE LA RECHERCHE …, priority 2011, published 2014)
Entries after “also recorded” stand apart in the source; their conditions may differ.

Columns and labels:
BRCA1 = conditions: mouse mammary cells (Antonova and Mueller 2008); cited from earlier work
GR P-Ser211 = assay: Western blot of GR P-Ser211; format: cell-based, human
Procedure: […] Control cells were treated with ethanol as vehicle (1:1000). Treatments were carried out in a phenol red free medium containing 5% dextran-charcoal-stripped serum for a period of 24 h in MCF-7 and MDA-MB231 and 48 h in HBE cells.
(§1) These five antibodies were then detected with an anti-rabbit HRP-conjugated secondary antibody (1:5000) (Santa Cruz, Heidelberg, Germany). Actin expression was analyzed with the human anti-β-actin mouse monoclonal primary antibody (1:20 000) (β-actin (AC-15); A5441, Sigma-Aldrich, St Quentin Fallavier, France), and then detected with an anti-mouse HRP-conjugated secondary antibody (1:2000) (Sigma-Aldrich, St Quentin Fallavier, France).

[1] = biological target: MAPK phosphorylated p38 (P-p38) (Homo sapiens, UniProt Q16539); assay: Western blot of phosphorylated MAPK p38; format: cell-based; conditions: MCF-7, in presence of SB
MAPK phosphorylated p38 (P-p38), sequence (Q16539 whole entry): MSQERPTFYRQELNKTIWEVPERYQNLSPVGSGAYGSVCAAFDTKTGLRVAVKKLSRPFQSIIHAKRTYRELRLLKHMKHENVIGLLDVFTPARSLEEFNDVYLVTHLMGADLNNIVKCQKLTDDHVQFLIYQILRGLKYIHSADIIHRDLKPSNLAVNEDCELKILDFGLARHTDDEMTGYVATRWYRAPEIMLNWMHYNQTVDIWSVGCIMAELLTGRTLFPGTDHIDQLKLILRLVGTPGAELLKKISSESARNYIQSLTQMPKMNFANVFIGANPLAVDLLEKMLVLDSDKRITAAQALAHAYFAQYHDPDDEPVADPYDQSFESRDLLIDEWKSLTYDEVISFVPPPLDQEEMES
Procedure: as §1

| levels of P-p38 [1] | Compound | BRCA1 expression (BRCA1) | decrease of GR P-Ser211 level (GR P-Ser211; MCF-7, DEX+SB compared to DEX treatment alone) | GR P-Ser211 level (GR P-Ser211; MCF-7, cells exposed to SB compared to basal conditions, even with BRCA1 overexpression) |
| --- | --- | --- | --- | --- |
|  | C[C@]12CCC(=O)C=C1CC[C@@H]1[C@@H]2[C@@H](O)C[C@@]2(C)[C@H]1CC[C@]2(O)C(=O)CO [hydrocortisone] | repress; also recorded: decrease |  |  |
| increased | Oc1ccc(-c2nc(-c3ccncc3)c(-c3ccc(F)cc3)[nH]2)cc1 [SB] |  | also observed | constant decrease |
